Test results: patent US7091174B2, “Caloxins” (McMaster University, priority 2000, dated 2006)
Ends that are not written are not given here.

Key:
[1] = target: T1, erythrocyte leaky ghost Ca^2+—Mg^2+-ATPase (PM Ca^2+ pump) (Homo sapiens, UniProt P23634); test: Ca2+-Mg2+-ATPase assay with human erythrocyte leaky ghosts (fluorometric coupled enzyme assay); format: biochemical
T1 construct: Human erythrocyte leaky ghosts (Jarrett et al. (1978)) were assayed for ATPase; from tissue; host or cells: human erythrocyte leaky ghosts prepared from human blood
Procedure: FIG. 1A is a graph showing Ca^2+—Mg^2+-ATPhase inhibition by caloxin 2A1. Human erythrocyte leaky ghosts (Jarrett et al. (1978)) were assayed for ATPase as described previously (Niggli et al. (1981); Grover (1988)) but by fluorometry. The drawn curve is from a total of 32 data points. Error bars where shown are SEM values.
The present invention includes all caloxins isolated according to the method of the invention. Caloxins can be tested for their ability to inhibit the plasma membrane Ca^2+-pump using various assays. In particular, PM Ca^2+ pump is a Ca^2+—Mg^2+-ATPase that binds ATP in presence of Ca^2+ to form an acylphosphate which is then hydrolysed upon Ca^2+ translocation (Guerini (1998)). The effect of caloxins on PM Ca^2+ pump can be tested in two assays using human erythrocyte leaky ghosts: Ca^2+—Mg^2+-ATPase and acylphosphate formation. In particular the inventors have shown that caloxin 2A-1 inhibits erythrocyte leaky ghost Ca^2+—Mg^2+-ATPase (FIG. 1A) producing 50% inhibition at 0.4±0.1 mM. Caloxin 2A-1 inhibits the PM Ca^2+-pump selectively. At a concentration of 0.9 mM, caloxin 2A1 inhibits the erythrocyte ghost Ca^2+—Mg^2+-ATPase by 78±4% but with no effect on Mg^2+-ATPase or Na^+—K^+-ATPase in the ghosts or the Ca^2+—Mg^2+-ATPase in skeletal muscle sarcoplasmic reticulum (FIG. 1B). The inhibition is selective to caloxin 2A1 because 0.9 mM of a peptide with randomized caloxin 2A1 sequence (SWSSFPGSGGVSNPN-amide, SEQ.ID.NO.5) has no effect (FIG. 1B) neither does the large mixture of peptides contained in the casein pancreatic hydrolysate (data not shown). Thus, caloxin 2A1 is selective in that it inhibits the PM Ca^2+-pump and not other ATPases. […] Caloxin 2A1 was selected by binding to a PMCA1 sequence but it inhibits PM Ca^2+-pump in erythrocyte ghosts which express mainly PMCA4. This finding is consistent with the high degree of similarity between sequences of PMCA genes in this domain (Swiss Protein Bank accession numbers P20020, Q01814, Q16720, P23634) although we have not ruled out that caloxin 2A1 has different affinities for each isoform. The second PM Ca^2+-pump assay consisted of Ca^2+-dependent formation of the acid stable 140 kDa acylphosphate intermediate from ^32P-γ-ATP in erythrocyte leaky ghosts.
1.2. Ca^2+—Mg^2+-ATPase assay with human erythrocyte leaky ghosts: A major hurdle was the lack of an appropriate assay. The difficulties were: (a) calmodulin needed for the PM Ca^2+ pump activity binds on the cytosolic surface of the pump protein and caloxins by definition bind on the outside surface, (b) most tissues have very active ecto-Mg^2+-ATPase and an ER Ca^2+—Mg^2+-ATPase—the latter can be inhibited by thapsigargin but the former poses a major problem. Erythrocyte ghosts contain mostly plasma membrane. Finally we used human erythrocyte ghosts which have low ecto-Mg^2+-ATPase. Fluorometric coupled enzyme assays are more sensitive. We purchased microcuvettes (100–150 μl) for our fluorometer (SPEX Fluorolog 112) with a heated chamber (37° C.) and made the appropriate cuvette adapter. We first monitor basal Mg^2+-ATPhase as slope for the disappearance of NADH fluorescence (ex=340, em=440 nm) in a solution containing 0.2–0.4 mg ghost protein, 0.1 mM ouabain, 100 mM NaCl, 20 mM KCl, 6 mM MgCl2, 30 mM imidazole-HCl pH 7.0, 0.5 mM EDTA, 0.6 mM NADH, 1 mM pyruvate enol phosphate, excess pyruvate kinase-[…], 0.5 mM ATP, 0.5 mM EGTA and 4 ug/ml calmodulin. […] Na^+—K^+-ATPase can be monitored without CaCl2 and ouabain.

pig coronary artery = test: Endothelium dependent relaxation of pig coronary artery pre-contracted with KCl; details: pig coronary artery precontracted with KCl, FIG. 3
[2] = target: T2, PM Ca^2+-pump 140 kDa acylphosphate intermediate (Homo sapiens, UniProt P23634); test: Ca2+-dependent acylphosphate formation from 32P-gamma-ATP in erythrocyte leaky ghosts; format: biochemical; details: 3.4 mM peptide, FIG. 1C
T2 construct: from tissue; host or cells: human erythrocyte leaky ghosts
T2 sequence (P23634 1-1205 isoform P23634-6): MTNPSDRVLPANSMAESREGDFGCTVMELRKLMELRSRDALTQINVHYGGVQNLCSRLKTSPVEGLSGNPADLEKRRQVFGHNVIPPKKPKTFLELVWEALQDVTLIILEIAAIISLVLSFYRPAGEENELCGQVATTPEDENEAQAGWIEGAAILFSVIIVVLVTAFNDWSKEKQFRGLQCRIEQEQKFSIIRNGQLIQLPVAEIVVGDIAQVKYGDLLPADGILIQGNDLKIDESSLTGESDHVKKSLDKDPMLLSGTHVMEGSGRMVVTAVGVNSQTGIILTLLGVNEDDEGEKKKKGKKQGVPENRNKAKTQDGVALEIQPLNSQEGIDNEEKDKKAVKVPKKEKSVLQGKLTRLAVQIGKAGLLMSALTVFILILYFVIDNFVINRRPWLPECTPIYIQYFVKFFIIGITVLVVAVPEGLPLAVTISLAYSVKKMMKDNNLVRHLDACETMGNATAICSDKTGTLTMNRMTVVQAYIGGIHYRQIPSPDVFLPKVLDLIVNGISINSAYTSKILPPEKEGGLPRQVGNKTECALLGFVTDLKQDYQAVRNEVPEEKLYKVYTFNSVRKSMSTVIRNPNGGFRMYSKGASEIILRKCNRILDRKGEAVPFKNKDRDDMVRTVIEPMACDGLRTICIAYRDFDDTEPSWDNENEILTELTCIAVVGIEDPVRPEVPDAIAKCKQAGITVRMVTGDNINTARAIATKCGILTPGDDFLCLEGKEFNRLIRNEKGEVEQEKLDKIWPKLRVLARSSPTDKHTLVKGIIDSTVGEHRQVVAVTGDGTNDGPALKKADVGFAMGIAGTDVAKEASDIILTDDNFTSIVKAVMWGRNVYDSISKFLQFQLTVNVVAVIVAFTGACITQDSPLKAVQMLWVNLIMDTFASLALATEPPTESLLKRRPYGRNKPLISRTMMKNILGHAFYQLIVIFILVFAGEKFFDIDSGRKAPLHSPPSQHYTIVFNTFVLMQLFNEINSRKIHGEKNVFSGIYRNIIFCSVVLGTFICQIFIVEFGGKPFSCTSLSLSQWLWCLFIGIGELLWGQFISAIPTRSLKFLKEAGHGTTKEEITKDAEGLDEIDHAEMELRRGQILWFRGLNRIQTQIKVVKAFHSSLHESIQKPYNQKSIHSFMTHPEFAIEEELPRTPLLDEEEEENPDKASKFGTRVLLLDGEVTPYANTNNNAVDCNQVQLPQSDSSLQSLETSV
Procedure: FIG. 1C is gel showing acylphosphate formation with 3.4 mM caloxin 2A1 or a random peptide. The acylphosphate reaction was carried out and samples analyzed by acid gel electrophoresis as previously described (Grover et al. (1988); Wuytack et al. (1984)). EGTA=1 mM, and CaCl2=0.05 mM.
(§1) The present invention includes all caloxins isolated according to the method of the invention. Caloxins can be tested for their ability to inhibit the plasma membrane Ca^2+-pump using various assays. In particular, PM Ca^2+ pump is a Ca^2+—Mg^2+-ATPase that binds ATP in presence of Ca^2+ to form an acylphosphate which is then hydrolysed upon Ca^2+ translocation (Guerini (1998)). The effect of caloxins on PM Ca^2+ pump can be tested in two assays using human erythrocyte leaky ghosts: Ca^2+—Mg^2+-ATPase and acylphosphate formation. In particular the inventors have shown that caloxin 2A-1 inhibits erythrocyte leaky ghost Ca^2+—Mg^2+-ATPase (FIG. 1A) producing 50% inhibition at 0.4±0.1 mM. Caloxin 2A-1 inhibits the PM Ca^2+-pump selectively. At a concentration of 0.9 mM, caloxin 2A1 inhibits the erythrocyte ghost Ca^2+—Mg^2+-ATPase by 78±4% but with no effect on Mg^2+-ATPase or Na^+—K^+-ATPase in the ghosts or the Ca^2+—Mg^2+-ATPase in skeletal muscle sarcoplasmic reticulum (FIG. 1B). […]

[3] = test system: T3, Ca^2+—Mg^2+-ATPase in skeletal muscle sarcoplasmic reticulum; test: Ca2+-Mg2+-ATPase in skeletal muscle sarcoplasmic reticulum; format: biochemical; details: 0.9 mM
T3 construct: G=ghosts and S=skeletal muscle sarcoplasmic reticulum; from tissue; host or cells: skeletal muscle sarcoplasmic reticulum
T3 sequence (O14983 whole entry): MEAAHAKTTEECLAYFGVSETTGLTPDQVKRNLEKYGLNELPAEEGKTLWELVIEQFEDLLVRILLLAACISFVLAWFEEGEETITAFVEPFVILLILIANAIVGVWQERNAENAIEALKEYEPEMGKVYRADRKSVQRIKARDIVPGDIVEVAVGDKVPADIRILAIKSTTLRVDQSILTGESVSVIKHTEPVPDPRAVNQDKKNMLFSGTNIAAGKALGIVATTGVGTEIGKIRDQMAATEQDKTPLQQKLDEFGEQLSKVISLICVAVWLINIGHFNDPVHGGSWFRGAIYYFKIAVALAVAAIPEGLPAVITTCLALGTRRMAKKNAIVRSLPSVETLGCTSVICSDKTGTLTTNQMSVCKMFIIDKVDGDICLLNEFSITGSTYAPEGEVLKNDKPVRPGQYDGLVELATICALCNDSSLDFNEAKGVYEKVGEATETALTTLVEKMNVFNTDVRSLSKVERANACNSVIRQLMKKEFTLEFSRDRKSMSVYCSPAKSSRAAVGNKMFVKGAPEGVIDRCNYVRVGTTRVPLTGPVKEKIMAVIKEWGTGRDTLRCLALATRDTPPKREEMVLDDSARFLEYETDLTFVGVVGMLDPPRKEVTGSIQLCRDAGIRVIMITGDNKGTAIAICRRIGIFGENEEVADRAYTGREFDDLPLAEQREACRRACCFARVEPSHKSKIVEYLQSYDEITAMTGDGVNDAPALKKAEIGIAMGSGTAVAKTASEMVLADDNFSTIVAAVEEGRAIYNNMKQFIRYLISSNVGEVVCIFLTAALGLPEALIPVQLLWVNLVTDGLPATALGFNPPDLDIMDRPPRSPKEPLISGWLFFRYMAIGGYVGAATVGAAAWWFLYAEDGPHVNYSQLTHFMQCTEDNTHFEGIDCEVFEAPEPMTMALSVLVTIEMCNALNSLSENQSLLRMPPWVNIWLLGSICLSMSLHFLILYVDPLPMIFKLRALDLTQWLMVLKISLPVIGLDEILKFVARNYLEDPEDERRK
Excerpt: (§2) FIG. 1B is a bar graph showing the selectivity of caloxin 2A1 for inhibition of PM Ca^2+—Mg^2+-ATPase using caloxin 2A1 or a random peptide (RP). G=ghosts and S=skeletal muscle sarcoplasmic reticulum, Type of ATPhase activity monitored is shown as Ca^2+—Mg^2+, Mg^2+ or Na^+—K^+-ATPase.
as §1

[4] = test system: Na^+—K^+-ATPase in the ghosts; test: Na+-K+-ATPase in erythrocyte ghosts; format: biochemical, human; details: 0.9 mM
Excerpt: as §2
(§3) The present invention includes all caloxins isolated according to the method of the invention. Caloxins can be tested for their ability to inhibit the plasma membrane Ca^2+-pump using various assays. In particular, PM Ca^2+ pump is a Ca^2+—Mg^2+-ATPase that binds ATP in presence of Ca^2+ to form an acylphosphate which is then hydrolysed upon Ca^2+ translocation (Guerini (1998)). The effect of caloxins on PM Ca^2+ pump can be tested in two assays using human erythrocyte leaky ghosts: Ca^2+—Mg^2+-ATPase and acylphosphate formation. […]
(§4) 1.2. […] We first monitor basal Mg^2+-ATPhase as slope for the disappearance of NADH fluorescence (ex=340, em=440 nm) in a solution containing 0.2–0.4 mg ghost protein, 0.1 mM ouabain, 100 mM NaCl, 20 mM KCl, 6 mM MgCl2, 30 mM imidazole-HCl pH 7.0, 0.5 mM EDTA, 0.6 mM NADH, 1 mM pyruvate enol phosphate, excess pyruvate kinase-[…], 0.5 mM ATP, 0.5 mM EGTA and 4 ug/ml calmodulin. […] Na^+—K^+-ATPase can be monitored without CaCl2 and ouabain.

[5] = test system: Mg^2+-ATPase in the ghosts; test: Mg2+-ATPase in erythrocyte ghosts; format: biochemical, human; details: 0.9 mM
Excerpt: as §2, §3, §4

PMCA4 = target: T4, PMCA4 (Homo sapiens, UniProt P23634); test: Ca2+-Mg2+-ATPase activity in microsomes of COS-M6 cells transfected with PMCA4; format: biochemical; details: read-out: inhibition of PMCA4 Ca^2+—Mg^2+-ATPase
T4 construct: expressed in transfected cells; host or cells: COS-M6 cells, microsomes
T4 sequence (P23634 1-1241): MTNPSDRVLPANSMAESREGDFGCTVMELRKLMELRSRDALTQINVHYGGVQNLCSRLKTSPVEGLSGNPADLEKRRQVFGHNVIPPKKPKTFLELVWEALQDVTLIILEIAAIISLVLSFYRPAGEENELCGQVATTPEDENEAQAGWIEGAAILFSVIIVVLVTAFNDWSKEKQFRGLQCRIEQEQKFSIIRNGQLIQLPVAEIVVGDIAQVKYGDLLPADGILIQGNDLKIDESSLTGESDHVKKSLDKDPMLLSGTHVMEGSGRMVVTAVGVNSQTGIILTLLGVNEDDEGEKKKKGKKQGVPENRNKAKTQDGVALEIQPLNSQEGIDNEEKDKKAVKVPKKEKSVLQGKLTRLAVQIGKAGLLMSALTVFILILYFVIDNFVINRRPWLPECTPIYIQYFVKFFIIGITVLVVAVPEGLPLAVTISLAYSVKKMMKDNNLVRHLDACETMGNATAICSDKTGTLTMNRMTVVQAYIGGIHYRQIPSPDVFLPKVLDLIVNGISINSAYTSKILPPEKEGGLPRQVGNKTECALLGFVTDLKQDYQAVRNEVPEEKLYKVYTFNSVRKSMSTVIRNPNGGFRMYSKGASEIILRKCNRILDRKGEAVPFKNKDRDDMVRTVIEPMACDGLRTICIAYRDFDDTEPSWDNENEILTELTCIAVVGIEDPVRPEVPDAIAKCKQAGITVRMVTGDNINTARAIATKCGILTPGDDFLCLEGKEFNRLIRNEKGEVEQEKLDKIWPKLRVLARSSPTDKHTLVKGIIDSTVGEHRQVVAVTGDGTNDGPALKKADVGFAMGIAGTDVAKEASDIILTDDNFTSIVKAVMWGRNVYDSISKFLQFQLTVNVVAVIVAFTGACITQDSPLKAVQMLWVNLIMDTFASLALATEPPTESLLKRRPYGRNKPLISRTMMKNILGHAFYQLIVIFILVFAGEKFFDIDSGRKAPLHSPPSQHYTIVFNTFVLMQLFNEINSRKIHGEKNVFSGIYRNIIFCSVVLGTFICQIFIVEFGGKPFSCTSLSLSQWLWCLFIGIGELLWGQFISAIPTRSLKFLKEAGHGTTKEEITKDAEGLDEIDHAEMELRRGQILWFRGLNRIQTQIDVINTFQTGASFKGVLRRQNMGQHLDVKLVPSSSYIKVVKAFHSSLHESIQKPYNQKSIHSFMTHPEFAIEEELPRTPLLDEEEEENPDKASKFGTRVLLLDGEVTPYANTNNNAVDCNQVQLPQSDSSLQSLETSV
Excerpt: (§5) PM Ca^2+-pump isoforms are encoded by 4 different genes. The inventors determined the effects of caloxin 2A1 on different isoforms. Cos M6 cells were transfected with this DNA using Fugene (purchased from Roche). Microsomes from SF9 cells expressing PMCA2 were a gift from Dr. A. Filoteo.
(§6) PMCA4 plasmid was transfected into COS-M6 cells. Thirty six to 48 hr later, microsomes were made from these cells and overexpression of the protein was confirmed using Western Blot. The Ca^2+—Mg^2+-ATPase activity in the microsomes was determined. The assay solutions included the following additional reagents: 0.05% Triton X-100, 5 mM sodium azide and 10 uM cyclopiazonic acid. Results: In a total of 22 determinations, the inhibition produced by 0.46,0.94 and 1.87 mM caloxin 2A1 on PMCA4 was 29, 47 and 58%, respectively.

PMCA2b = test: Ca2+-Mg2+-ATPase activity in microsomes from SF9 cells expressing PMCA2; format: biochemical; details: 1.87 mM; two experiments
Excerpt: as §5, §6

rat aortic rings = test: Endothelium dependent relaxation of rat aorta rings precontracted with phenylephrine; details: precontracted with 0.5 μM phenylephrine, 0.34 mM caloxin 2A1, reversed by L-NAME
Procedure: Rat aorta rings were hung in organ bath as previously described. The rings were contracted with submaximum (0.5 μM) phenylephrine before adding 0.34 mM caloxin 2A1 and 0.1 mM L-nitroarginylmethyl ester) as shown. Each experiment was replicated at least four times.
Inhibiting the PM Ca^2+ pump in vascular endothelium should increase cytosolic Ca^2+, thereby activating endothelial nitric oxide synthase to relax arteries (Rees et al. (1990); Sato et al. (1990)). […] Thus caloxin 2A1 produced the biological effect in the endothelium which was expected from its inhibiting PM Ca^2+-pump.
1.3. […] We anesthetized a rats by methoxyfluorane (Metofane) inhalation and removed its thoracic aorta as 3 mm rings. These tissues relax to 1 μM carbachol after they have been contracted with phenylephrine (0.5 to 2 μM). We initially tried to do these experiments in Na^+-free solution but the tissues gave very poor contractions to phenylephrine. In Na^+-free solution, the tissues contracted to 20–80 mM KCl but relaxation with carbachol was poor. We reverted to using phenylephrine but in Na^+-containing Krebs' solution.

Substance | effect on erythrocyte ghost Ca^2+—Mg^2+-ATPase (in words) ([1]; concentration not given) | endothelium dependent relaxation of coronary arteries (pig coronary artery) | endothelium dependent relaxation of coronary arteries (pig coronary artery; listed as Caloxin 3A1) | inhibition of acylphosphate formation [2] | effect on erythrocyte ghost Ca^2+—Mg^2+-ATPase (in words) ([1]; 0.9 mM peptide, FIG. 1B) | effect on Ca^2+—Mg^2+-ATPase in skeletal muscle sarcoplasmic reticulum [3] | effect on Na^+—K^+-ATPase in the ghosts [4] | effect on Mg^2+-ATPase in the ghosts [5] | inhibition at 460 µM (PMCA4; 0.46 mM) [%] | inhibition at 940 µM (PMCA4; 0.94 mM) [%] | inhibition at 1870 µM (PMCA4; 1.87 mM) [%] | average inhibition of PMCA2b (PMCA2b) [%] | relaxation of rat aortic rings (rat aortic rings) | relaxation of rat aortic rings (rat aortic rings; listed as Caloxin 2A1) | inhibition of erythrocyte ghost Ca^2+—Mg^2+-ATPase ([1]; 0.9 mM peptide) [%] | IC50 ([1]; human erythrocyte leaky ghosts, read-out: concentration producing 50% inhibition of erythrocyte leaky ghost Ca^2+—Mg^2+-ATPase) [µM]
Acetyl-DSHINNEPSRRRGGGK (Ac-DSHINNEPSRRRGGGK; listed as Homo sapiens) [caloxin 3A1, peptide isolated by phage display screening against PMCA874] | inhibits | endothelium dependent relaxation | produces an endothelium dependent relaxation | – | – | – | – | – | – | – | – | – | – | – | – | –
SWSSFPGSGGVSNPN-amide (SWSSFPGSGGVSNPN-NH2; listed as Homo sapiens) [randomized peptide, reference compound] | – | – | – | does not | no effect | – | – | – | – | – | – | – | – | – | – | –
VSNSNWPSFPSSGGG-NH2 [caloxin 2A1, VSNSNWPSFPSSGGG-amide] | – | – | – | inhibits the acylphosphate formation | significant (p<0.05) inhibition | no effect | no effect | no effect | 29 | 47 | 58 | 46 | produced a relaxation | relaxed the aortic rings | 78±4 | 400 ± 100
